Like-named read-outs stand apart in the source and are kept apart here.
Legend:
Assay type in all cases: cell-based
[1] = test system: Leukemia T lymphocytes (Jurkat); assay: Antiproliferative activity, trypan blue staining and automated counting; details: Homo sapiens
Protocol: (§1) The antiproliferative activity of vitamin C (L-ascorbic acid) and/or compound A6 was determined in Colon26 (colon cancer), GS9L (glioblastoma), Jurkat (leukemia), MCF7 (breast cancer), and U87MG (glioblastoma). Jurkat cells were cultured in RPMI-1640 medium supplemented with 10% heat-inactivated fetal bovine serum (FBS), penicillin (100 U/mL), and streptomycin (100 μg/mL). Normal lymphocytes were cultured in the same medium supplemented with 10% FBS only. Adhesive cancer cell lines (Colon26, GS9L, MCF7, and U87MG) were cultured in DMEM supplemented with 10% FBS, penicillin (100 U/mL), and streptomycin (100 μg/mL). Adhesive non-cancer cell lines, FHC and MCF10A, were cultured in DMEM-F12 and DMEM, respectively, each supplemented with 10% FBS and growth factors. EOC2 cells were cultured in DMEM supplemented with 10% FBS. All cells were cultured in a humidified atmosphere containing 5% CO2 at 37° C. The adhesive cells were released using a trypsin-EDTA solution (0.05% of trypsin/EDTA) and subsequently washed with PBS. The cells were collected by centrifugation (1,000×g/10 min for leukemia lymphocytes; 1,500×g/15 min for normal lymphocytes; and 800×g/5 min for adhesive cells) and placed in a fresh medium without antibiotics and growth factors prior to treatment with vitamin C and/or compound A6. The cells (1×10^6 cells/mL for non-adhesive and 3×10^5 cells/mL for adhesive) were incubated with vitamin C and/or compound A6 for different time intervals in a cell incubator. At each time interval, aliquots were removed for analyses. For lymphocytes, cell proliferation and viability were analyzed by trypan blue staining and automated counting using a COUNTESS automated cell counter. Briefly, 10 μL of trypan blue (0.4%) was added to 10 μL of a cell suspension and incubated for 30 s, and 10 μL of the cell suspension was placed in a COUNTESS glass chamber. The numbers of live and dead cells in the suspension were counted automatically. The linear range of operation with the automated cell counter was 1×10^4-5×10^6 cells/mL, and the optimal cell size was in the range of […].

Normal lymphocytes = assay: as above; details: Lymphocyte, combination of vitamin C and compound A6 (weight ratio 100:1), concentration of the named component
Protocol: as §1

[2] = test system: Lymphoma B lymphocytes (Raji); assay: as above; details: Homo sapiens
[3] = test system: Breast cancer cells (MCF7); assay: Antiproliferative activity, CELLTITER-GLO luminescent cell viability assay; details: Homo sapiens, combination of vitamin C and compound A6 (weight ratio 100:1), concentration of the named component
Protocol: (§2) The antiproliferative activity of vitamin C (L-ascorbic acid) and/or compound A6 was determined in Colon26 (colon cancer), GS9L (glioblastoma), Jurkat (leukemia), MCF7 (breast cancer), and U87MG (glioblastoma). Jurkat cells were cultured in RPMI-1640 medium supplemented with 10% heat-inactivated fetal bovine serum (FBS), penicillin (100 U/mL), and streptomycin (100 μg/mL). Normal lymphocytes were cultured in the same medium supplemented with 10% FBS only. Adhesive cancer cell lines (Colon26, GS9L, MCF7, and U87MG) were cultured in DMEM supplemented with 10% FBS, penicillin (100 U/mL), and streptomycin (100 μg/mL). Adhesive non-cancer cell lines, FHC and MCF10A, were cultured in DMEM-F12 and DMEM, respectively, each supplemented with 10% FBS and growth factors. EOC2 cells were cultured in DMEM supplemented with 10% FBS. All cells were cultured in a humidified atmosphere containing 5% CO2 at 37° C. The adhesive cells were released using a trypsin-EDTA solution (0.05% of trypsin/EDTA) and subsequently washed with PBS. The cells were collected by centrifugation (1,000×g/10 min for leukemia lymphocytes; 1,500×g/15 min for normal lymphocytes; and 800×g/5 min for adhesive cells) and placed in a fresh medium without antibiotics and growth factors prior to treatment with vitamin C and/or compound A6. The cells (1×10^6 cells/mL for non-adhesive and 3×10^5 cells/mL for adhesive) were incubated with vitamin C and/or compound A6 for different time intervals in a cell incubator. At each time interval, aliquots were removed for analyses. For other cell lines, cell proliferation and viability were analyzed using the CELLTITER-GLO luminescent cell viability assay. Briefly, 100 μL aliquots of a cell suspension were placed in a well of a 96-well plate and incubated with vitamin C and/or compound A6 for 24 and 48 h in a humidified atmosphere containing 5% CO2 at 37° C. The CELLTITER-GLO reagent containing luciferin and luciferase (100 μL) was added to each well, followed by incubation. The luminescence produced by the luciferase-catalyzed conversion of luciferin into oxyluciferin by living cells was detected using a microplate reader in a chemiluminescent mode.

[4] = test system: Colon cancer cells (Colon 26); assay: as above; details: Mus musculus
Protocol: as §2

[5] = test system: Human glioblastoma cells (U87MG); assay: as above; details: U-87 MG, combination of vitamin C and compound A6 (weight ratio 100:1), concentration of the named component
Protocol: as §2

[6] = test system: Normal breast epithelial cells (MCF10A); assay: as above; details: Homo sapiens, MCF-10A, combination of vitamin C and compound A6 (weight ratio 100:1), concentration of the named component
Protocol: as §2

[7] = test system: Normal colon epithelial cells (FHC); assay: as above; details: combination of vitamin C and compound A6 (weight ratio 100:1), concentration of the named component
Protocol: as §2

Normal microglial cells = assay: as above; details: combination of vitamin C and compound A6 (weight ratio 100:1), concentration of the named component
Protocol: as §2

[8] = combination of vitamin C and compound A6 (weight ratio 100:1), concentration of the named component, read-out: IC50
[9] = compound alone, read-out: IC50 (μM) Jurkat
[10] = compound alone, read-out: IC50 (μM) Raji
[11] = Colon26, compound alone, read-out: IC50 (μM) Colon26

Row | IC50 [1, 8] [µM] | IC50 [1, 9] [µM] | IC50 [2, 8] [µM] | IC50 [2, 10] [µM] | IC50 [3] [µM] | IC50 [4, 11] [µM] | IC50 [4, 8] [µM] | IC50 [5] [µM] | SMILES | IC50 (Normal lymphocytes) [µM] | IC50 [6] [µM] | IC50 [7] [µM] | IC50 (Normal microglial cells) [µM]
1 | 3 | 2000 | 5 | > 2000 | 3.5 | > 2000 | 4.8 | 11 | O=C1O[C@H]([C@@H](O)CO)C(O)=C1O [Vitamin C, L-ascorbic acid] | > 20 | > 20 | > 20 | > 20
2 | 300 | 5 | 500 | > 20 | 350 | > 20 | 480 | 1100 | COC1=C(OC)C(=O)C(C)=CC1=O [Compound A6, 2,3-dimethoxy-5-methyl-1,4-benzoquinone] | > 2000 | > 2000 | > 2000 | > 2000
